Data: US11667616B2, “Oral GSNOR inhibitor and pharmaceutical use thereof” (NANJING MEDICAL UNIVERSITY, priority 2020, dated 2023)

Columns and labels:
HUVECs [1] = assay: Endothelial cell tube formation under high glucose; assay type: cell-based, Human; conditions: high glucose 30 mM, 10 nM, 24 h
Excerpt: It is known that in the diabetic vascular complications, decreased angiogenesis and increased vascular endothelial permeability are among the risk factors causing local edema, ischemia followed by ulcer and amputation.
(§1) FIG. 3A, FIG. 3B and FIG. 3C show study of the in-vitro activity of the subject compound 1 against diabetic vascular complications.

[2] = system: human aortic smooth muscle cells (HASMCs); assay: Contractile/synthetic marker expression in angiotensin II-treated smooth muscle cells; assay type: cell-based; conditions: angiotensin II 1 μM, 10 nM, 24 hours
Excerpt: Then, cellular RNA were extracted to detect contractile/synthetic markers of smooth muscle cells.

[3] = Pharmacokinetic study, plasma concentration by LC-MS/MS; assay type: in vivo, ICR mice; conditions: ICR, mouse; for half-life: read-out: drug half-life period (converted)
Excerpt: Then, the plasma concentration was detected by LC-MS/MS at hour 0.083, 0.25, 0.5, 1, 2, 4, 8 and 24 respectively (FIG. 5).

GSNOR = target: T1, GSNOR (Homo sapiens, UniProt P11766); assay: GSNOR activity in lysate of treated HUVECs (NADH consumption at 340 nm); assay type: cell-based; conditions: for activities in in-vitro studies: relative to N6022
T1 construct: the cell lysate supernatants were treated with a substrate GSNO and a coenzyme NADH; endogenous in cells; host or cells: HUVEC (human umbilical vein endothelial cells)
T1 sequence (P11766 whole entry): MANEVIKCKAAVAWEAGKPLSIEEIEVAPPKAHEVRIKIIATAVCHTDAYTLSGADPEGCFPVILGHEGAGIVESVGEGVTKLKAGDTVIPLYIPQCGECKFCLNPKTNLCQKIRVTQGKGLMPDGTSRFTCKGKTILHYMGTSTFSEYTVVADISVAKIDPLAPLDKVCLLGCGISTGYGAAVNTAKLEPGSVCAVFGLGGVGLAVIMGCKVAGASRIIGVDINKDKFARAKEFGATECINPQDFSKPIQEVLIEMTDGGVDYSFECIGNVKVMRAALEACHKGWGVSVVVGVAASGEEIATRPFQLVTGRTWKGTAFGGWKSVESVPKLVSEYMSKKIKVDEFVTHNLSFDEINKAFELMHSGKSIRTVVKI
Excerpt: GSNOR plays a crucial regulatory role in asthma and cystic fibrosis.

HUVECs [4] = assay: Endothelial cell permeability under high glucose; assay type: cell-based, Human; conditions: high glucose 30 mM, 10 nM, 24 h
Excerpt: as §1

[5] = system: diabetic C57BL/6J mice with lateral limb ischemia; assay: Streptozotocin diabetes + lateral limb ischemia model; assay type: in vivo
Procedure: To generate diabetes model, mice at week 8 were intraperitoneally injected with streptozotocin (60 mg/kg/day) for consecutive 5 days, then the modeling was identified as a success if the blood glucose was measured to be greater than 16.6 mmol/L at week 10. […] The gastrocnemius muscles of the ischemic lateral limbs of the mice were isolated for frozen section, and immunofluorescence (platelet-endothelial cell adhesion molecule, CD31) was used to detect the angiogenesis (FIG. 6B); and the semimembranosus muscles were isolated for frozen section, and immunofluorescence (α-smooth muscle actin, α-SMA) was used to detect the arteriogenesis (FIG. 6B).

HUVECs [6] = assay: Endothelial cell sphere sprouting under high glucose; assay type: cell-based, Human; conditions: high glucose 30 mM, 10 nM, 24 h
Excerpt: as §1

[7] = system: C57BL/6J mice with β-aminopropionitrile-induced aortic aneurysm/dissection; assay: β-aminopropionitrile-induced aortic aneurysm/dissection model; assay type: in vivo
[8] = gavage 6 mg/kg/day vs N6022 iv 1 mg/kg/day, N6022-1 gavage 5.6 mg/kg/day, N6022-2 gavage 5.3 mg/kg/day
[9] = gavage 6 mg/kg/day, β-aminopropionitrile drinking water 28 days

SMILES	angiogenesis ability of endothelial cells (tube formation) (HUVECs [1])	decrease in the expression of the contractile markers (actin α2, calmodulin 1, transgelin) due to angiotensin II [2]	increase in the expression of the synthetic markers (osteopontin, Kruppel-like factor 4, Kruppel-like factor 5) due to angiotensin II [2]	half-life [3] [h]	activities in in-vitro studies (GSNOR)	permeability of the endothelial cells (HUVECs [4])	angiogenesis of the ischemic lateral limbs of the diabetic mice (CD31, α-SMA) ([5]; gavage 6 mg/kg/day after operation)	effect on diabetic limb ischemia compared with controls [5, 8]	blood flow recovery of the lateral limbs (laser speckle imaging) ([5]; gavage 6 mg/kg/day, day 0, 7 and 14)	inhibitory effect on the GSNOR activity (GSNOR; 10 nM, 24 hours, HUVECs, lysate + GSNO + NADH)	sprouting ability of the endothelial cells (HUVECs [6])	effect on aortic aneurysm/dissection compared with controls [7, 8]	expansion of the aortic diameter [7, 9]	mortality rate of the mice [7, 9]	bioavailability ([3]; po) [%]
Cc1cc(C(N)=O)ccc1-n1c(CCC(=O)O)ccc1-c1ccc(-n2ccnc2)cc1 [N6022, 3-(5-(4-(1H-imidazol-1-yl)phenyl)-1-(4-carbamoyl-2-methylphenyl)-1H-pyrrol-2-yl) propanoic acid, reference compound]	obviously improve	obviously inhibit	obviously inhibit	0.76 ± 0.15	–	–	–	–	–	–	–	–	–	–	–
CCOC(=O)CCc1ccc(-c2ccc(-n3ccnc3)cc2)n1-c1ccc(C(N)=O)cc1C [N6022-2]	–	–	–	–	significantly reduced	–	–	–	–	–	–	–	–	–	–
Cc1cc(C(N)=O)ccc1-n1c(CCC(=O)N2CCSC2=O)ccc1-c1ccc(-n2ccnc2)cc1 [subject compound 1, s4-(2-(4-(1H-imidazol-1-yl)phenyl)-5-(3-oxo-3-(2-oxothiazolidin-3-yl)propyl)-1H-pyrrol-1-yl)-3-methylbenzamide]	obviously improve	obviously inhibit	obviously inhibit	1.62 ± 0.81	good activity in vitro	modify the permeability	obviously promote	equivalent effect to the group intravenously injected with N6022	restore blood flow	equivalent to N6022	improve sprouting ability	equivalent effect to the group intravenously injected with N6022	inhibited	inhibited	60.1 ± 7.91
Cc1cc(C(N)=O)ccc1-n1c(CCC(N)=O)ccc1-c1ccc(-n2ccnc2)cc1 [N6022-1]	–	–	–	–	significantly reduced	–	–	–	–	–	–	–	–	–	–
